Holding throughout (details): Escherichia coli
The target of test [1] is T1, Delta-aminolevulinic acid dehydratase (Homo sapiens) (UniProt P13716).
T1 sequence (whole entry): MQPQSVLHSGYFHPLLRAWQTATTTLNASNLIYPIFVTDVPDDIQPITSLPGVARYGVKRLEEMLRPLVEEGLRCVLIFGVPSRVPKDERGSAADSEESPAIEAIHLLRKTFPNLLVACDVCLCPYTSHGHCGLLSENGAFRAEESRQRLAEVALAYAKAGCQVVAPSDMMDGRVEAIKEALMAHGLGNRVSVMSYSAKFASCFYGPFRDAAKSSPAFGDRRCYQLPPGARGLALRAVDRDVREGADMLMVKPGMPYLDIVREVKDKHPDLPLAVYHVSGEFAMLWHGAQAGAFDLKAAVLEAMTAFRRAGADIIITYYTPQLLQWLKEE
Put plainly: Inhibitory activity against porphobilinogen synthase in presence of 150 uM over 30 min.

The target of test [2] is T1, Delta-aminolevulinic acid dehydratase (Homo sapiens). Description: Retention of porphobilinogen synthase activity in presence of 0.3 uM of the compound.
Test [3] has the same target. Put plainly: Inhibitory activity against porphobilinogen synthase in presence of 5 mM for 30 min; No loss in activity.

For 3 compounds, Loss of activity and Retention results are on record in ChEMBL document CHEMBL1128629, “Mechanism-based inactivation of porphobilinogen synthase: Substitution of ketone functionality in the substrate with a thioester” (Bioorg Med Chem Lett, 1995).

Regarding `NCC(=O)SCC(=O)O`, in test [1], the Loss of activity was 80%.

On to `NCC(=O)CCC(=O)O`, for which the Retention in test [2] came to 80%.

Consider `NCC(=O)OCC(=O)O`, for which, in test [3], the Loss of activity result is “No loss in activity”.
